In patent US10183032B2, “Methods for treating bacterial infection” (Ball State Innovation Corporation, priority 2012, dated 2019):

Assays:
Staphylococcus aureus [1] = experiment: S. aureus invasion in all cell types examined; assay type: cell-based; details: HUVEC, HEK, U-87 MG, RAW and A549
Experimental: Two days prior to the assay, TSB is inoculated with S. aureus (American Type Culture Collection #29213) and incubated overnight (225 rpm, 37° C.). Bacteria are subcultured the next day into fresh TSB. On the day of the assay, bacteria are pelleted (10000×g, 37° C., 3 min), are washed in saline, are pelleted as above, are resuspended in saline, then fluorescently labeled by incubation with rabbit anti-mouse IgG Alexa Fluor 488 (final concentration 8 μg/ml, RT, 20 min). Protein A, a S. aureus cell surface protein, avidly binds IgG thereby labeling the bacteria. Labeled bacteria are washed twice as above and are resuspended to 3×10^8 CFU/ml in saline. Host cells are incubated with the bacteria for 1 hour (1.2×10^8 CFU/ml for same-day recovery, 5×10^6 for recovery after 48 hours, 1.4×10^7 CFU/ml; 5% CO2, 37° C.). […] To detect the level of infection using flow cytometry, cells that have been infected with fluorescently-labeled bacteria are washed extensively with PBS, lifted from 96-well plate by incubation with trypsin, washed extensively in FACS buffer (2% BSA/0.1% sodium azide/PBS), fixed (FACS buffer containing 0.74% formaldehyde), and are counted using an Accuri flow cytometer (BD, Franklin Lakes, N.J.). They are also lifted from culture dishes using cell scrapers, pelleted, fixed (1% BSA/0.74% formaldehyde/PBS), and are counted using an Accuri flow cytometer. […]

Staphylococcus aureus [2] = experiment: Staphylococcus aureus host cell invasion assay in HUVEC, flow cytometry; assay type: cell-based
Experimental: In one embodiment, human umbilical vein endothelial cells (HUVEC, Life Technologies) are cultured in M200 medium supplemented with LSGS. RAW 264.7 cells (American Type Culture Collection, ATCC, Manassas, Va.) are cultured in RPMI supplemented with 10% FBS and L-glutamine. All cell types are maintained at 5% CO2, 37° C., in 75 cm^2 vented cap flasks (Thermo-Fisher). For assays, cultured cells are plated at 1×10^5 cells/ml in 35 mm culture dishes coated with Attachment Factor. The next day, cells are pretreated in culture medium containing the vehicle control or ML 141. For compound delivery, ML 141 first is suspended into DMSO or into PEG at a concentration of 5 mM. The 5 mM solution is diluted to 1 mM in the solvent and then diluted to the final concentration for each experiment in either serum-containing or serum-free medium. For vehicle control treatment, the same volume of PEG or DMSO as that of ML 141 is added to medium. The following day, the invasion assay is performed. For the shorter duration experiments, compound is added on the same day as the invasion assay, 1 hour prior to bacteria.
In another embodiment, HUVEC (Millipore, Billerica, Mass.) are cultured in EndoGRO LS Complete Media (Millipore) and are maintained at 5% CO2, 37° C., in 75 cm^2 vented cap flasks (Thermo-Fisher). For the invasion assay, cultured cells are plated at 1×10^4 cells/ml in 96-well culture dishes coated with Attachment Factor. The next day, cells are pretreated in culture medium containing the vehicle control, ML 141, or ML 141 structural analog. For compound delivery, ML 141 and structural analogs first are suspended into PEG at a concentration of 5 mM. The 5 mM solution is diluted to 1 mM in the solvent and then is diluted to the final concentration for each experiment in serum containing medium. For vehicle control treatment, the same volume of PEG as that of ML 141 or of ML 141 structural analog is added to the medium. The following day, the invasion assay is performed. Bacteria are added directly to medium containing vehicle control, ML 141, or the ML 141 structural analog.
Two days prior to the assay, TSB is inoculated with S. aureus (American Type Culture Collection #29213) and incubated overnight (225 rpm, 37° C.). Bacteria are subcultured the next day into fresh TSB. On the day of the assay, bacteria are pelleted (10000×g, 37° C., 3 min), are washed in saline, are pelleted as above, are resuspended in saline, then fluorescently labeled by incubation with rabbit anti-mouse IgG Alexa Fluor 488 (final concentration 8 μg/ml, RT, 20 min). Protein A, a S. aureus cell surface protein, avidly binds IgG thereby labeling the bacteria. Labeled bacteria are washed twice as above and are resuspended to 3×10^8 CFU/ml in saline. Host cells are incubated with the bacteria for 1 hour (1.2×10^8 CFU/ml for same-day recovery, 5×10^6 for recovery after 48 hours, 1.4×10^7 CFU/ml; 5% CO2, 37° C.). Following infection, extracellular bacteria are removed by extensive washes with PBS and incubation of the host cells with antimicrobials that have limited mammalian membrane permeability (lysostaphin, 20 μg/ml and gentamicin, 50 μg/ml; 45 min for same-day recovery studies, 48 hours for 2-day recovery studies; 5% CO2, 37° C.). To detect the level of infection using flow cytometry, cells that have been infected with fluorescently-labeled bacteria are washed extensively with PBS, lifted from 96-well plate by incubation with trypsin, washed extensively in FACS buffer (2% BSA/0.1% sodium azide/PBS), fixed (FACS buffer containing 0.74% formaldehyde), and are counted using an Accuri flow cytometer (BD, Franklin Lakes, N.J.). They are also lifted from culture dishes using cell scrapers, pelleted, fixed (1% BSA/0.74% formaldehyde/PBS), and are counted using an Accuri flow cytometer. For enumeration of the infecting bacteria, intracellular bacteria are released from host cells using 1% saponin/PBS (20 min, 5% CO2, 37° C.) and serial dilutions are plated on TSA (16 hours, 37° C.). […]

COc1ccc(C2CC(c3ccccc3)=NN2c2ccc(S(N)(=O)=O)cc2)cc1 (stereo not drawn) [ML 141, 4-[3-(4-methoxyphenyl)-5-phenyl-3,4-dihydropyrazol-2-yl]benzenesulfonamide]
inhibition of invasion in all cell types examined (Staphylococcus aureus [1]): inhibited invasion
decrease of invasion (Staphylococcus aureus [2]; ML 141 10.0 μM in PEG, 18 hours, HUVEC infected 1 hour): more than 80%
inhibition at 10 µM (Staphylococcus aureus [2]; Staphylococcus aureus, HUVEC, 18 h, read-out: inhibition of invasion): ~50%
